Results on ten molecules are retold here after US20240358702A1, “CYCLIC UREA KRAS INHIBITORS” (INCYTE CORPORATION, priority 2023, published 2024).

For one data set, the target named is KRAS G12D (Homo sapiens, UniProt P01116, G12D). Description: GDP-GTP exchange assay (bodipy-GDP/GppNHp, SOS1), KRAS G12D. The class given is biochemical. To be noted: KRAS_G12D exchange assay IC50; 4 h pre-incubation; value for the most potent isomer quoted. On the procedure:
(§1) The inhibitor potency of the exemplified compounds was determined in a fluorescence based guanine nucleotide exchange assay, which measures the exchange of bodipy-GDP (fluorescently labeled GDP) for GppNHp (Non-hydrolyzable GTP analog) to generate the active state of KRAS in the presence of SOS1 (guanine nucleotide exchange factor). Inhibitors were serially diluted in DMSO and a volume of 0.1 μL was transferred to the wells of a black low volume 384-well plate. 5 μL/well volume of bodipy-loaded KRAS G12D diluted to […] in assay buffer (25 mM Hepes pH 7.5, 50 mM NaCl, 10 mM mgCl2 and 0.01% Brij-35) was added to the plate and pre-incubated with inhibitor for 4 h at ambient temperature. Appropriate controls (enzyme with no inhibitor or with a G12D inhibitor) were included on the plate. The exchange was initiated by the addition of a 5 μL/well volume containing 1 mM GppNHp and 300 nM SOS1 in assay buffer. The 10 μL/well reaction concentration of the bodipy-loaded KRAS G12D, GppNHp, and SOS1 were 2.5 nM, 500 uM, and 150 nM, respectively. The reaction plates were incubated at ambient temperature for 2 h, a time estimated for complete GDP-GTP exchange in the absence of inhibitor. For the KRAS G12V mutant, similar guanine nucleotide exchange assays were used with 2.5 nM as final concentration for the bodipy loaded KRAS proteins and 3 h incubation after adding GppNHp-SOS1 mixture. A cyclic peptide described to selectively bind G12D mutant (Sakamoto et al., BBRC 484.3 (2017), 605-611) or internal compounds with confirmed binding were used as positive controls in the assay plates. Fluorescence intensities were measured on a PheraStar plate reader instrument (BMG Labtech) with excitation at 485 nm and emission at 520 nm.
(§2) Either GraphPad prism or Genedata Screener SmartFit was used to analyze the data. The IC50 values were derived by fitting the data to a four parameter logistic equation producing a sigmoidal dose-response curve with a variable Hill coefficient.
(§3) The symbol “t” indicates IC50≤100 nM, “††” indicates IC50>100 nM but ≤1 μM; and “†††” indicates IC50 is >1 μM but ≤5 μM, “††††” indicates IC50 is >5 μM but ≤10 μM. “NA” indicates IC50 not available.

Another data set deals with Caco-2 cells. Description: Caco2 assay (permeability, A-B). The class given is in vitro ADME. Conditions: Papp absorptive direction (A-B), test compound 50 μM, 120 minutes. The procedure:
Caco-2 cells are grown at 37° C. in an atmosphere of 5% CO2 in DMEM growth medium supplemented with 10% (v/v) fetal bovine serum, 1% (v/v) nonessential amino acids, penicillin (100 U/mL), and streptomycin (100 μg/mL). Confluent cell monolayers are subcultured every 7 days or 4 days for Caco-2 by treatment with 0.05% trypsin containing […]. Caco-2 cells are seeded in 96-well Transwell plates. The seeding density for Caco-2 cells is 14,000 cells/well. DMEM growth medium is replaced every other day after seeding. Cell monolayers are used for transport assays between 22 and 25 days for Caco-2 cells.
Cell culture medium is removed and replaced with HBSS. To measure the TEER, the HBSS is added into the donor compartment (apical side) and receiver compartment (basolateral side). The TEER is measured by using a REMS Autosampler to ensure the integrity of the cell monolayers. Caco-2 cell monolayers with TEER values≥300 Ω·cm^2 are used for transport experiments. To determine the Papp in the absorptive direction (A-B), solution of test compound (50 μM) in HBSS is added to the donor compartment (apical side), while HBSS solution with 4% BSA is added to the receiver compartment (basolateral side). The apical volume was 0.075 mL, and the basolateral volume is 0.25 mL. The incubation period is 120 minutes at 37° C. in an atmosphere of 5% CO2. At the end of the incubation period, samples from the donor and receiver sides are removed and an equal volume of acetonitrile is added for protein precipitation. The supernatants are collected after centrifugation (3000 rpm, Allegra X-14R Centrifuge from Beckman Coulter, Indianapolis, IN) for LCMS analysis. The permeability value is determined according to the equation: […]
where the flux rate (F, mass/time) is calculated from the slope of cumulative amounts of compound of interest on the receiver side, SA is the surface area of the cell membrane, VD is the donor volume, and MD is the initial amount of the solution in the donor chamber.
The symbol “+” indicates a Caco-2 value of […], “++” indicates a Caco-2 value of >0.5 but ≤1; and “+++” indicates a Caco-2 value of >1. “NA” indicates IC50 not available.
(In general: Passage across Caco-2 layers is used to estimate intestinal permeability.)

The target in the next data set is KRAS G12V (Homo sapiens, UniProt P01116, G12V). The data set can be described thus: GDP-GTP exchange assay (bodipy-GDP/GppNHp, SOS1), KRAS G12V. Format: biochemical. Conditions: KRAS_G12V exchange assay IC50, value for the most potent isomer quoted. On the procedure: as §1, §2, §3
KRAS G12V, sequence (P01116 1-188 isoform P01116-2 G12V): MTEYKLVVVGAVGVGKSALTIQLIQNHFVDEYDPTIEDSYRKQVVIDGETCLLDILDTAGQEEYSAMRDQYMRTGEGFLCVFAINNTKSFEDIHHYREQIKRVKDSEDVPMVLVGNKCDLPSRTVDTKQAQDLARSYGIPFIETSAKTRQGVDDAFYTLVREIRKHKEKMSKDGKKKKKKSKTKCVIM

KRAS G12D, sequence (P01116 1-188 isoform P01116-2 G12D): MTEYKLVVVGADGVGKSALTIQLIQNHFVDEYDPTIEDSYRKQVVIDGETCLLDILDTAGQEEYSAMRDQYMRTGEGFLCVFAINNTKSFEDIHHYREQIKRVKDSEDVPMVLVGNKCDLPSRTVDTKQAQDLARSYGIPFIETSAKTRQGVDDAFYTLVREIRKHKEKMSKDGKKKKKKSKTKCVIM

As for `Cc1nc2c(F)c(-c3cccc(Cl)c3Cl)c(CCC#N)cc2c2c1cc([C@@H](C)N1CCCN(c3ccncc3)C1=O)n2[C@H]1[C@H]2CN[C@@H]1C2` (single isomer, unassigned) [Example 1], the G12D_exchange result at KRAS G12D is on record as “†”. The Caco-2 result with Caco-2 cells was “+++ (“+++” indicates a Caco-2 value of >1)”. Moreover, the G12V_exchange result on KRAS G12V was “†”.
Take `Cc1nc2c(F)c(-c3cccc(Cl)c3Cl)c(CCC#N)cc2c2c1cc([C@@H](C)N1CCCN(c3ccccc3)C1=O)n2[C@H]1[C@H]2CN[C@@H]1C2` (single isomer, unassigned) [Example 2]: the G12D_exchange entry on KRAS G12D is reported as “†”. Also, the Caco-2 result in the data set on Caco-2 cells is “+++ (“+++” indicates a Caco-2 value of >1)”. The G12V_exchange result at KRAS G12V is reported as “†”.
For the molecule `Cc1nc2c(F)c(-c3cccc(Cl)c3Cl)c(CCC#N)cc2c2c1cc([C@@H](C)N1CCCN(c3ccc(F)cc3)C1=O)n2[C@H]1[C@H]2CN[C@@H]1C2` (single isomer, unassigned) [Example 3], the G12D_exchange result on KRAS G12D was “†”. The Caco-2 entry in the data set with Caco-2 cells is “+++ (“+++” indicates a Caco-2 value of >1)”. Moreover, on KRAS G12V, the G12V_exchange result is reported as “†”.
Take `Cc1nc2c(F)c(-c3cccc(Cl)c3Cl)c(CCC#N)cc2c2c1cc([C@@H](C)N1CCCN(c3ccccn3)C1=O)n2[C@H]1[C@H]2CN[C@@H]1C2` (single isomer, unassigned) [Example 4]: the G12D_exchange entry on KRAS G12D was “†”. In the data set on Caco-2 cells, the Caco-2 result was “+ (“+” indicates a Caco-2 value of 50.5)”. Also, on KRAS G12V, the G12V_exchange entry was “†”.
Regarding `Cc1nc2c(F)c(-c3cccc(Cl)c3Cl)c(CCC#N)cc2c2c1cc([C@@H](C)N1CCCN(c3ccncc3F)C1=O)n2[C@H]1[C@H]2CN[C@@H]1C2` (single isomer, unassigned) [Example 5], the G12D_exchange entry at KRAS G12D is “†”. In addition, the Caco-2 entry with Caco-2 cells is reported as “+++ (“+++” indicates a Caco-2 value of >1)”. For the same molecule, the G12V_exchange result at KRAS G12V is “†”.
On to `Cc1nc2c(F)c(-c3cccc(Cl)c3Cl)c(CCC#N)cc2c2c1cc([C@@H](C)N1CCCN(c3ccnc(F)c3)C1=O)n2[C@H]1[C@H]2CN[C@@H]1C2` (single isomer, unassigned) [Example 6], for which the G12D_exchange entry on KRAS G12D is given as “†”. Moreover, the Caco-2 entry in the data set on Caco-2 cells was “+++ (“+++” indicates a Caco-2 value of >1)”. The G12V_exchange result on KRAS G12V was “†”.
Consider `Cc1nc2c(F)c(-c3cccc(Cl)c3Cl)c(CCC#N)cc2c2c1cc([C@@H](C)N1CCCN(c3ccc(F)cn3)C1=O)n2[C@H]1[C@H]2CN[C@@H]1C2` (single isomer, unassigned) [Example 7], for which the G12D_exchange result on KRAS G12D was “†”. Moreover, in the data set with Caco-2 cells, the Caco-2 result is “+++ (“+++” indicates a Caco-2 value of >1)”. Also, the G12V_exchange result at KRAS G12V is recorded as “†”.
For the molecule `CC(O)c1nc2c(F)c(-c3cccc(Cl)c3Cl)c(CCC#N)cc2c2c1cc([C@@H](C)N1CCCN(c3ccncc3)C1=O)n2[C@H]1[C@H]2CN[C@@H]1C2` (single isomer, unassigned) [Example 14], the G12D_exchange entry at KRAS G12D is given as “†”. Moreover, in the data set with Caco-2 cells, the Caco-2 entry is “+ (“+” indicates a Caco-2 value of 50.5)”. The G12V_exchange entry on KRAS G12V was “†”.
As to `Cc1c(Cl)cc(O)cc1-c1c(CCC#N)cc2c(nc(C)c3cc([C@@H](C)N4CCCN(c5ccncc5)C4=O)n([C@H]4[C@H]5CN[C@@H]4C5)c32)c1F` [Example 15, 3-(1-((1R,4R,5S)-2-azabicyclo[2.1.1]hexan-5-yl)-7-(3-chloro-5-hydroxy-2-methylphenyl)-6-fluoro-4-methyl-2-((R)-1-(2-oxo-3-(pyridin-4-yl)tetrahydropyrimidin-1(2H)-yl)ethyl)-1H-pyrrolo[3,2-c]quinolin-8-yl)propanenitrile], the G12D_exchange result at KRAS G12D is given as “†”. In addition, the Caco-2 entry with Caco-2 cells was “+ (“+” indicates a Caco-2 value of 50.5)”. Also, the G12V_exchange result on KRAS G12V was “†”.
Consider `Cc1nc2c(F)c(-c3cccc(Cl)c3Cl)c(CCC#N)cc2c2c1cc([C@@H](C)N1CCCN(c3cccc(F)n3)C1=O)n2[C@H]1[C@H]2CN[C@@H]1C2` [Example 41, 3-(1-((1R,4R,5S)-2-azabicyclo[2.1.1]hexan-5-yl)-7-(2,3-dichlorophenyl)-6-fluoro-2-((R)-1-(3-(6-fluoropyridin-2-yl)-2-oxotetrahydropyrimidin-1(2H)-yl)ethyl)-4-methyl-1H-pyrrolo[3,2-c]quinolin-8-yl)propanenitrile], for which the G12D_exchange entry at KRAS G12D is listed as “†”. On KRAS G12V (read-out: G12V_exchange), the IC50 lay within 100 to 1000 nM.
